# Measured values taken from patent publication US20090287077A1, “SYSTEM FOR DETECTING FUNCTION OF INTESTINAL BARRIER AND METHOD FOR USING THE SAME” (NATIONAL TAIWAN UNIVERSITY, priority 2008, published 2009).
# Experiment: Plasma concentration of Gd-containing contrast agent after injection into jejunal pouch (MRI of plasma samples, standard curve)
# Assay type: in vivo, rat
# Details: for concentration of the Gd-containing contrast agent in the plasma: 0.5 ml (0.5 M) into jejunal pouch, mean±SEM
# Protocol: Male Wistar rats weighed 250 g to 300 g were used in this experiment. The rats were randomly divided into 2 groups: sham-operation control group (CON) and ischemia/reperfusion group (I/R). Before the experiment, the rats were fasted overnight but allowed to drink water ad lib. The experiment was conducted in a sterile environment. The rats in the two groups were anethesized by intraperitoneal injection of ethyl urethane (1.2 g/kg), and then subjected to abdominal median incision. A jejunal pouch of 10 cm was made at 10 cm from the end of suspensory ligament of duodenum. A 1 ml syringe with a PE-10 catheter was intubated to one end of the jejunal pouch and 0.5 ml of Krebs buffer solution was slowly injected into the pouch from the syringe. The formula of Krebs buffer solution was as follows: 115 mmol/L of NaCl, 8 mmol/L of KCl, 1.25 mmol/L of Ca Cl2, 1.2 mmol/L of MgCl2, 2.0 mmol/L of KH2PO4 and 25 mmol/L of NaHCO3, with a pH of 7.33 to 7.37. […] The CON rats were subjected to abdominal median incision but not subjected to SMA closure. Thereafter, the tissue samples were taken from the rats of these 2 groups for histologic examination and analysis of bacterial translocation (as shown below). […]
# In order to determine the rate of the Gd-containing contrast agent transferred from jejunal lumen into systemic circulation, a PE-50 catheter was intubated into left femoral artery before the surgical operation. […] The intensity of signal indication of each plasma sample and of each standard solution was calculated by using a determining device to circle a region of 4 mm^2 in MRI image and to calculate the intensity of signal indication in the region (mm^2). […] The concentration of the Gd-containing contrast agent in the plasma samples at each time point was calculated, using the standard curve. The flow-out rate of the Gd-containing contrast agent flowing from intestinal lumen to systemic circulation at different stages of reperfusion was calculated and expressed in mM/min.
smiles,measurement,setting,value
CNC(=O)CN(CCN(CCN(CC(=O)[O-])CC(=O)NC)CC(=O)[O-])CC(=O)[O-].[Gd+3] [Gd-containing contrast agent],concentration of the Gd-containing contrast agent in the plasma,"CON rats (sham operation), 15 minutes",6 ± 4 µM
same,concentration of the Gd-containing contrast agent in the plasma,"I/R rats (20 min SMA closure), after 15 minutes of reperfusion",220 ± 44 µM
same,"flow-out rate of the Gd-containing contrast agent from intestinal lumen to systemic circulation, I/R rats versus CON rats",stage of 0-15 minutes of reperfusion,significantly higher than that in CON rats
